We go through eleven compounds from BindingDB's records for patent US20240360134 (Actelion Pharmaceuticals, 2024).

The target in assay [1] is Vascular endothelial growth factor receptor 2 (Homo sapiens, UniProt P35968). The assay can be described thus: VEGFR ADP GLO Assay. How it is done:
Step 1. Dispensing inhibitors/controls: Using Echo, dispense 10 nL/well compound serial dilutions in DMSO to columns 1-22 (in 384-well plates) or columns 1-44 (in 1536-well plates). Dilution series=11 pt, 3-fold dilutions. The top compound concentration in the source plate is […]. The top compound concentration in the assay plate is 10 uM. Using Echo, dispense 10 nl/well DMSO to column 23 (in 384-well plates) or columns 45-47 (in 1536-well plates). These wells will serve as negative control wells Using Echo, dispense 10 nl/well 400 uM TAK-593 in DMSO to column 24 (in 384-well plates) or column 48 (in 1536-well plates). The final concentration of TAK-593 in the assay should be 1 uM. These wells will serve as positive control wells.Step 2. Pre-incubation of inhibitors with kinase: Add 2 μL/well 2× kinase solution. Centrifuge at 1000 rpm for 1 min. Incubate at room temperature for 30 min.Step 3. Kinase cascade reaction: Add 2 μL/well 2× substrate/ATP solution to initiate kinase reactions. Centrifuge at 1000 rpm for 1 min. Incubate at room temperature for 180 min.Final concentrations of components in the assay:[VEGFR2]=5 nM;[ATP]=1.2 mM;[Srctide]=1 mg/mL;[DMSO]≤1%.Step 4. Quench: Add 2 uL/well ADP Glo Reagent+0.05% CHAPS. Centrifuge at 1000 rpm for 1 min; Incubate at room temperature for one hour.Step 5. Detection: Add 2 uL/well Kinase Detection Reagent+0.05% CHAPS. Centrifuge at 1000 rpm for 1 min; Incubate at room temperature for 1 hour; Read Luminescence on a plate reader.

Assay [2] addresses T1, Platelet-derived growth factor receptor beta (Homo sapiens, UniProt P09619). The assay can be described thus: PDGFRβ LanthaScreen Assay. In general terms: In TR-FRET formats the signal depends on donor and acceptor labels being close together.
Experimental: Dispensing inhibitors: Using Echo, dispense 40 nL/well (or less) compound serial dilutions in DMSO onto the assay plate.Step 2. Dispensing Kinase-Tracer solution: Add 4 μL/well Kinase-Tracer solution. Seal the plate with optically transparent plate seal. […] Detection: Read TR-FRET signals after 18 hours incubation at room temperature.III. […] IC50 values are determined from a 4-parameter fit, using the following equation: Y=Bottom+(Top−Bottom)/(1+10((Log IC50−X)*Hill slope)), where X=log10 of the compound concentration; top can be defined by PC; bottom defined by NC.
Assay [3] concerns the target T1, Platelet-derived growth factor receptor beta. The assay can be described thus: PDGFRβ HTRF Assay.
Experimental: PDGFRβ E+I pre-incubation: Add 2 μL 2× protein solution to columns 1-24 using the Multidrop Combi. Centrifuge at 1000 rpm for 1 min. Incubate 30 min at RTStep 2. Enzymatic reaction: Add 2 μL substrate solution to columns 1-24 to initiate the reaction using the Multidrop Combi; cover/seal the assay plate to reduce evaporation. Centrifuge at 1000 rpm for 1 min. […] Quench/Detection: Add 2 μl 3× quench/detection solution to columns 1-24 using the Multidrop Combi; cover/seal the plate. Centrifuge 1 min 1000 rpm. Incubate at RT for 60 min.

T1 sequence (P09619 whole entry): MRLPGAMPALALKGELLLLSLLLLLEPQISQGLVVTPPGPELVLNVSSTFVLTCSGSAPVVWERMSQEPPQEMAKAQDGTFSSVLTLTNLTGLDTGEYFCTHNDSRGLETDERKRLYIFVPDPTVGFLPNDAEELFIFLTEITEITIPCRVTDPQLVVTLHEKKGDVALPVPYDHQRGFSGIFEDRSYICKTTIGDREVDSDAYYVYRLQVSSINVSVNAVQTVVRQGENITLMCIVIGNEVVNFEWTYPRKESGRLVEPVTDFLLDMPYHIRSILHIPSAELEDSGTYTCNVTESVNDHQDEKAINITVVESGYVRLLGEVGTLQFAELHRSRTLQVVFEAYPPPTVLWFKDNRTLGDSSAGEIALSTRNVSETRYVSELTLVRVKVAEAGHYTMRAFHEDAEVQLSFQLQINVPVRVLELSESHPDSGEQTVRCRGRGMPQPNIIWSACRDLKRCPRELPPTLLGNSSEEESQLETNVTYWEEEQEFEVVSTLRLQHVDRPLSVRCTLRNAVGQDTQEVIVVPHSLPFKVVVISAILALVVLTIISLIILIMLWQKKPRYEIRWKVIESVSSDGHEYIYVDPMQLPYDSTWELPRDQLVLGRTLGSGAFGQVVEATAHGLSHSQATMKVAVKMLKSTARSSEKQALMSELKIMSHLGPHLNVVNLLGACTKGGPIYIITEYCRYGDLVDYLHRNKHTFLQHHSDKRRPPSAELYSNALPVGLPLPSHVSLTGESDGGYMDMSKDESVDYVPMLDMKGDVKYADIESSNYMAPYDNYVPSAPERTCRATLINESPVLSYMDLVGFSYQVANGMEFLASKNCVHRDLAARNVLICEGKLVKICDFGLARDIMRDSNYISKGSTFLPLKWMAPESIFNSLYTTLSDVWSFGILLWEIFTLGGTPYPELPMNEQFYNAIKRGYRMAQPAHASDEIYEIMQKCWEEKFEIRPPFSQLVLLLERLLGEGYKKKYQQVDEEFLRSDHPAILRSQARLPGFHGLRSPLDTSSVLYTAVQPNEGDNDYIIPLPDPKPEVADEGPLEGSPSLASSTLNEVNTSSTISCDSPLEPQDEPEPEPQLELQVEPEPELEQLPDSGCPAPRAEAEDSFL
Sequence of Vascular endothelial growth factor receptor 2 (P35968 whole entry): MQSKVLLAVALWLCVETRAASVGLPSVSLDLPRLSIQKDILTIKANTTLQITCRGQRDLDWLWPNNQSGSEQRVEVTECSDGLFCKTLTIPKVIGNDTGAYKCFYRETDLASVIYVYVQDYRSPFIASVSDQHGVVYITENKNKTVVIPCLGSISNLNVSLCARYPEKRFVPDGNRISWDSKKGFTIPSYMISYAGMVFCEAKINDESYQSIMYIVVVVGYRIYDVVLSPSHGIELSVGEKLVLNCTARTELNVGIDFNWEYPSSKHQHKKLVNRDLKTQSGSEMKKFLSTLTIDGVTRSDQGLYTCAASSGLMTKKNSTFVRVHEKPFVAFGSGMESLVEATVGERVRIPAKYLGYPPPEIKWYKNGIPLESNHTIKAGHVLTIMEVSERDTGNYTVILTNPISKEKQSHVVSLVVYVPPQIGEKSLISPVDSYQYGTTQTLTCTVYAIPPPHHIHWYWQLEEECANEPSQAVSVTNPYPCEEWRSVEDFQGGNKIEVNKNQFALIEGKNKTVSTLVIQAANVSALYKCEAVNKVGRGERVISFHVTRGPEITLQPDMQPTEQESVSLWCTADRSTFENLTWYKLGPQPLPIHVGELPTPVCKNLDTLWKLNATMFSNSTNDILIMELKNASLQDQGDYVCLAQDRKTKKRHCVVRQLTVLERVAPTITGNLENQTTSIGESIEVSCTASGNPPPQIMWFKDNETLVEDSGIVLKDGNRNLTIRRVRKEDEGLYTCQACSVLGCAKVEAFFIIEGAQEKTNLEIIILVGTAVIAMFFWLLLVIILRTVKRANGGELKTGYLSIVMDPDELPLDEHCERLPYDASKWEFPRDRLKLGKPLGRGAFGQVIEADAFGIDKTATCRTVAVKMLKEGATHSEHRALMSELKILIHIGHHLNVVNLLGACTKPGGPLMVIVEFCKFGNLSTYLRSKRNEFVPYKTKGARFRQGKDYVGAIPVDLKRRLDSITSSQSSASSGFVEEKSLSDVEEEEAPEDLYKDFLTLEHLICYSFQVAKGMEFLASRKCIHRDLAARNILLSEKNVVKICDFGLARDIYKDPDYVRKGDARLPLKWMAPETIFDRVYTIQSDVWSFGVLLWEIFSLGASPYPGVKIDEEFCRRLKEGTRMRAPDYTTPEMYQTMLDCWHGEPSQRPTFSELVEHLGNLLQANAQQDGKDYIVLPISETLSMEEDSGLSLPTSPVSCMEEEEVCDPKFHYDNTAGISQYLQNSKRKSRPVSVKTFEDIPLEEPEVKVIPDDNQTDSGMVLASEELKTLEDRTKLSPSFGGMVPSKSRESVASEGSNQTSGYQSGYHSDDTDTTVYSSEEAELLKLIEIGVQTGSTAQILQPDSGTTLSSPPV

On to `COC(=O)Cc1cccc(Nc2ncc3c(Nc4cc(C(=O)NCCN5CCCC5(C)C)cnc4C)nn(C)c3n2)c1` [US20240360134, Example 43], for which the results for the IC50 in assay [1], in assay [2] and in assay [3] were 2080 nM, 4.1 nM and 0.54 nM, respectively.

As for `Cc1ncc(NC(=O)CN2CCC3(CC3)C2)cc1Nc1nn(C)c2nc(Nc3cnn(C)c3)ncc12` [US20240360134, Example 74], the IC50 (as a rule, the concentration needed to halve the response being measured) in assay [1] is 5070 nM; in assay [2] it was 1.6 nM; in assay [3], 0.23 nM.

On to `Cc1ncc(NC(=O)CN2CCC(F)(F)CC2)cc1Nc1nn(C)c2nc(Nc3cnn(C)c3)ncc12` [US20240360134, Example 72], for which the IC50 stood at 1100 nM in assay [1], 1.7 nM in assay [2] and 0.27 nM in assay [3].

`Cc1ncc(NC(=O)CN(CCO)C2CCCC2)cc1Nc1nn(C)c2nc(Nc3cnn(C)c3)ncc12` [US20240360134, Example 79]: the IC50 in assay [1] was 5390 nM; in assay [2], 2.5 nM.

Regarding `Cc1ncc(NC(=O)CN2CCC[C@@H]2C)cc1Nc1nn(C)c2nc(Nc3cnn(C)c3)ncc12` [US20240360134, Example 71], the IC50 in assay [1] is more than 7500 nM; in assay [2], 2.1 nM; in assay [3] it was 0.25 nM.

Turning to `Cc1ncc(NC(=O)CN2C[C@@H](C)O[C@@H](C)C2)cc1Nc1nn(C)c2nc(Nc3cnn(C)c3)ncc12` [US20240360134, Example 78], the IC50 in assay [1] is 3930 nM; in assay [2] it was 3.7 nM; in assay [3] it was 0.59 nM.

As for `COC(=O)C(C)(C)c1cccc(Nc2ncc3c(Nc4cc(C(=O)NCCN5CCCC5(C)C)cnc4C)nn(C)c3n2)c1` [US20240360134, Example 46], the IC50 came to 3580 nM in assay [1], 4.9 nM in assay [2] and 0.81 nM in assay [3].

Take `Cc1ncc(NC(=O)CN2C[C@H](C)O[C@@H](C)C2)cc1Nc1nn(C)c2nc(Nc3cnn(C)c3)ncc12` (relative stereo) [US20240360134, Example 73]: the IC50 in assay [1] stood at 4570 nM; in assay [2] it was 2.6 nM; in assay [3] it was 0.5 nM.

In the case of `Cc1ncc(NC(=O)CN(CCCO)C2CCCC2)cc1Nc1nn(C)c2nc(Nc3cnn(C)c3)ncc12` [US20240360134, Example 80], the results for the IC50 in assay [1], in assay [2] and in assay [3] were more than 7500 nM, 3.2 nM and 0.5 nM, respectively.

Turning to `Cc1ncc(NC(=O)CN2CC(F)(F)C2)cc1Nc1nn(C)c2nc(Nc3cnn(C)c3)ncc12` [US20240360134, Example 76], the values for the half-inhibitory concentration (IC50) in assay [1], in assay [2] and in assay [3] were 3600 nM, 2.6 nM and 0.42 nM, respectively.

As to `Cc1ncc(NC(=O)CN2CCC(F)(F)C2)cc1Nc1nn(C)c2nc(Nc3cnn(C)c3)ncc12` [US20240360134, Example 75], the IC50 in assay [1] is 847 nM; in assay [2] it was 2.1 nM; in assay [3], 0.35 nM.
